These compounds were tested on A549 (assay: Compound was evaluated for the cytotoxicity against A-549 tumor cell line after 3 days of incubation). Conditions: Homo sapiens, A549, 72 h.
Format: functional, cell-based

First: C#C[C@@]1(O)C[C@H](c2cc(OC)c(OC)c(OC)c2)[C@@H]2C(=O)c3c(c(O)c4ccccc4c3O)C(=O)[C@@H]2C1
Second: COc1cc([C@H]2C[C@](O)(C(C)=O)C[C@H]3C(=O)c4c(c(O)c5ccccc5c4O)C(=O)[C@@H]23)cc(OC)c1OC
The IC50 of the first is 10-fold lower: 0.5 µM for the first, 5 µM for the second.

Compared with COc1cc([C@H]2CC(=O)C[C@H]3C(=O)c4c(c(O)c5ccccc5c4O)C(=O)[C@@H]23)cc(OC)c1OC, COc1cc([C@H]2C[C@](O)(C(C)=O)Cc3c(O)c4c(c(O)c32)C(=O)c2ccccc2C4=O)cc(OC)c1OC is higher in IC50: 5 µM for the first, greater than 10 µM for the second. The first is the more potent here.

First: COc1cccc2c1C(=O)c1c(O)c3c(c(O)c1C2=O)C[C@@](O)(C(=O)CO)C[C@@H]3O[C@H]1C[C@H](N)[C@H](O)[C@H](C)O1 [DOXORUBICIN]
Second: C#C[C@]1(O)Cc2c(O)c3c(c(O)c2[C@@H](c2cc(OC)c(OC)c(OC)c2)C1)C(=O)c1ccccc1C3=O
The IC50 of the first is lower: 0.02 µM for the first, greater than 10 µM for the second.

Each compound was assayed on HT-29 (assay: Compound was evaluated for the cytotoxicity against HT-29 tumor cell line after 3 days of incubation). Conditions: Homo sapiens, HT-29, 72 h.
Format: functional, cell-based

Compared with C#C[C@@]1(O)C[C@H](c2cc(OC)c(OC)c(OC)c2)[C@@H]2C(=O)c3c(c(O)c4ccccc4c3O)C(=O)[C@@H]2C1, COc1cc([C@H]2C[C@](O)(C(C)=O)C[C@H]3C(=O)c4c(c(O)c5ccccc5c4O)C(=O)[C@@H]23)cc(OC)c1OC is 10-fold higher in IC50: 0.5 µM for the first, 5 µM for the second.

Compared with COc1cc([C@H]2CC(=O)C[C@H]3C(=O)c4c(c(O)c5ccccc5c4O)C(=O)[C@@H]23)cc(OC)c1OC, COc1cc([C@H]2C[C@](O)(C(C)=O)Cc3c(O)c4c(c(O)c32)C(=O)c2ccccc2C4=O)cc(OC)c1OC is higher in IC50: 5 µM for the first, greater than 10 µM for the second. The first is the more potent here.

Compared with COc1cccc2c1C(=O)c1c(O)c3c(c(O)c1C2=O)C[C@@](O)(C(=O)CO)C[C@@H]3O[C@H]1C[C@H](N)[C@H](O)[C@H](C)O1 [DOXORUBICIN], C#C[C@]1(O)Cc2c(O)c3c(c(O)c2[C@@H](c2cc(OC)c(OC)c(OC)c2)C1)C(=O)c1ccccc1C3=O is higher in IC50: 0.02 µM for the first, greater than 10 µM for the second. The first is the more potent here.

What follows are compounds tested on P388 (assay: Compound was evaluated for the cytotoxicity against P-388 tumor cell line after 3 days of incubation). Conditions: Mus musculus, P388, 72 h.
Format: functional, cell-based

First: C#C[C@@]1(O)C[C@H](c2cc(OC)c(OC)c(OC)c2)[C@@H]2C(=O)c3c(c(O)c4ccccc4c3O)C(=O)[C@@H]2C1
Second: COc1cc([C@H]2C[C@](O)(C(C)=O)C[C@H]3C(=O)c4c(c(O)c5ccccc5c4O)C(=O)[C@@H]23)cc(OC)c1OC
The IC50 of the first is 10-fold lower: 0.5 µM for the first, 5 µM for the second. The first is the more potent here.

Going from COc1cc([C@H]2CC(=O)C[C@H]3C(=O)c4c(c(O)c5ccccc5c4O)C(=O)[C@@H]23)cc(OC)c1OC to COc1cc([C@H]2C[C@](O)(C(C)=O)Cc3c(O)c4c(c(O)c32)C(=O)c2ccccc2C4=O)cc(OC)c1OC, the IC50 rises from 5 µM to greater than 10 µM. The first is the more potent here.

Going from COc1cccc2c1C(=O)c1c(O)c3c(c(O)c1C2=O)C[C@@](O)(C(=O)CO)C[C@@H]3O[C@H]1C[C@H](N)[C@H](O)[C@H](C)O1 [DOXORUBICIN] to C#C[C@]1(O)Cc2c(O)c3c(c(O)c2[C@@H](c2cc(OC)c(OC)c(OC)c2)C1)C(=O)c1ccccc1C3=O, the IC50 rises from 0.02 µM to greater than 10 µM.

Each compound was assayed on SK-MEL-28 (assay: Compound was evaluated for the cytotoxicity against MEL-28 tumor cell line after 3 days of incubation). Conditions: Homo sapiens, SK-MEL-28, 72 h.
Format: functional, cell-based

First: C#C[C@@]1(O)C[C@H](c2cc(OC)c(OC)c(OC)c2)[C@@H]2C(=O)c3c(c(O)c4ccccc4c3O)C(=O)[C@@H]2C1
Second: COc1cc([C@H]2C[C@](O)(C(C)=O)C[C@H]3C(=O)c4c(c(O)c5ccccc5c4O)C(=O)[C@@H]23)cc(OC)c1OC
The IC50 of the first is 10-fold lower: 0.5 µM for the first, 5 µM for the second.

First: COc1cc([C@H]2CC(=O)C[C@H]3C(=O)c4c(c(O)c5ccccc5c4O)C(=O)[C@@H]23)cc(OC)c1OC
Second: COc1cc([C@H]2C[C@](O)(C(C)=O)Cc3c(O)c4c(c(O)c32)C(=O)c2ccccc2C4=O)cc(OC)c1OC
The IC50 of the first is lower: 5 µM for the first, greater than 10 µM for the second.

Going from COc1cccc2c1C(=O)c1c(O)c3c(c(O)c1C2=O)C[C@@](O)(C(=O)CO)C[C@@H]3O[C@H]1C[C@H](N)[C@H](O)[C@H](C)O1 [DOXORUBICIN] to C#C[C@]1(O)Cc2c(O)c3c(c(O)c2[C@@H](c2cc(OC)c(OC)c(OC)c2)C1)C(=O)c1ccccc1C3=O, the IC50 rises from 0.02 µM to greater than 10 µM.
